Experimental data as given in patent US11878074B2, “Methods of use of emulsion formulations of an NK-1 receptor antagonist” (Heron Therapeutics, Inc., priority 2016, dated 2024).

Assay: Pharmacokinetics of aprepitant emulsion, intravenous injection, plasma LC-MS/MS
Format: in vivo, Sprague-Dawley rats
Details: rat, i.v., equivalent to 14 mg/kg aprepitant, by the 3-hour time point
Method: Blood from all rats was collected at the appropriate time intervals and processed to plasma by centrifugation. Plasma samples were analyzed by LC-MS/MS for aprepitant and fosaprepitant, as appropriate. […] The curves indicate the initial aprepitant level reached immediately after injection of the aprepitant emulsion was almost 3 times higher than the initial aprepitant level reached immediately after injection of the fosaprepitant solution.

C[C@@H](O[C@H]1OCCN(Cc2nc(O)n(P(=O)(O)O)n2)[C@H]1c1ccc(F)cc1)c1cc(C(F)(F)F)cc(C(F)(F)F)c1 [fosaprepitant]
Plasma levels of aprepitant, emulsion versus fosaprepitant solution: essentially the same
